Measured values published in patent US20160106102A1, “KNOWN AND NEW HETEROCYCLIC COMPOUNDS AS PEST CONTROL AGENTS” (BAYER CROPSCIENCE AKTIENGESELLSCHAFT, priority 2013, published 2016).
Where two headings read alike, the source gives them in different places.

What was measured:
[1] = test system: Myzus persicae; assay: Myzus persicae - sachet test; format: in vivo; conditions: 100% = all animals killed
Method: Myzus persicae—Sachet Test Solvent: 2% by vol. of N-methylpyrrolidone • 2% by vol. of diacetone alcohol To produce an appropriate active ingredient formulation, the active ingredient is mixed with the specified amounts of solvent and the concentrate is diluted to the desired concentration with water. The active ingredient formulation is added to a specific nutrient medium in the desired concentration by pipetting. This plate is sealed and combined with a further plate populated with the green peach aphid (Myzus persicae). After the desired time, the kill in % is determined. 100% means that all the animals have been killed; 0% means that no animals have been killed.

[2] = log P determination by LC-MS in the acidic range; format: physicochemical; conditions: for chromatographic logP: reversed-phase HPLC column (C18)
Excerpt: The LC-MS determination in the acidic range is effected at pH 2.7 using 0.1% aqueous formic acid and acetonitrile (contains 0.1% formic acid) as eluents, linear gradient from 10% acetonitrile to 95% acetonitrile. Alternatively, the determination is effected in the acidic range at pH 2.3 using 0.1% aqueous phosphoric acid and acetonitrile as eluents; linear gradient from 10% acetonitrile to 95% acetonitrile.

[3] = application rate of 6 ppm in nutrient medium
[4] = application rate of 30 ppm in nutrient medium
[5] = Table 4, HPLC on reversed-phase column (C 18), 55° C., acidic range (pH 2.7 or pH 2.3)
[6] = Table 2, compounds of the formula (I-2), acidic range pH 2.7 or pH 2.3
[7] = Table 3, HPLC on reversed-phase column (C 18), 55° C., acidic range (pH 2.7 or pH 2.3)

Compound	efficacy (kill in %) [1, 3] [%]	efficacy (kill in %) [1, 4] [%]	log P (acid) ([2]; LC-MS in the acidic range)	also measured
Cc1cc(NC(=O)c2cccnc2)nn1Cc1ncc(Cl)cn1 [Compound I-1-195]	100	100	1.23	
Cc1cc(C)nc(-n2nc(NC(=O)c3cncc(F)c3)cc2C)n1 [Compound I-1-132]		100	2.04	
CCc1cc(NC(=O)c2cccnc2)nn1Cc1ccc(Cl)nc1 [Compound I-1-58]	80	100	1.67	
Cc1cc(NC(=O)c2cccnc2)nn1C[S+]([O-])c1ncccn1 (centres unmarked) [Compound I-1-235]	80	100	0.5	
Cc1cc(NC(=O)c2cccnc2)nn1C(C)(C)C#N [Compound I-1-219]	100	100	1.31	
COc1cccc(Cn2ccc(NC(=O)c3cccnc3)n2)c1 [Compound I-1-74]	100	100	1.57	
O=C(Nc1nnn(Cc2ccc(Cl)nc2)n1)c1cccnc1 [Compound I-4-3]	100	100		log P (acid) [2, 5]: 1.05
N#Cc1cc(NC(=O)c2cccnc2)nn1Cc1ncccn1 [Compound I-1-269]	100	100	1.0	
Cc1cc(NC(=O)c2cccnc2)nn1CC(=O)Cc1ccccc1Cl [Compound I-1-247]	100	100	1.92	
CCc1nc(NC(=O)c2cccnc2)nn1C [Compound I-2-17]		100		log P (acid) [2, 6]: 0.01
O=C(Nc1cc(Cl)n(Cc2ncccn2)n1)c1cccnc1 [Compound I-1-197]	100	100	1.04	
CCCCNC(=O)n1nc(NC(=O)c2cccnc2)cc1C [Compound I-1-315]	100	100	1.92	
O=C(Nc1cc(C2CC2)n(Cc2ccccc2)n1)c1cccnc1 [Compound I-1-56]		100	2.1	
Cc1cc(NC(=O)c2cccnc2)nn1C(=O)NCc1cccc(F)c1 [Compound I-1-327]	100	100	2.1	
Cc1cc(NC(=O)c2cccnc2)nn1Cc1ccc(Cl)nc1 [Compound I-1-21]	100	100	1.42	
CC(=O)n1nc(NC(=O)c2cccnc2)cc1C [Compound I-1-120]	100	100	1.18	
Cc1nc(NC(=O)c2cccnc2)n[nH]1 [Compound I-2-1]		100		log P (acid) [2, 6]: <−0.23
COc1cc(OC)nc(Cn2nc(NC(=O)c3cccnc3)cc2C)n1 [Compound I-1-53]	100	100	1.59	
CCOC(=O)c1ccc(Cn2ccc(NC(=O)c3cccnc3)n2)cc1 [Compound I-1-92]		100	1.85	
Cc1cc(NC(=O)c2ccc(Cl)nc2)nn1Cc1ccc(F)cc1 [Compound I-1-95]		100	2.57	
Cc1cc(NC(=O)c2cccnc2)nn1C(=O)NC(C)(C)C [Compound I-1-319]	100	100	1.99	
Cc1cc(NC(=O)c2cccnc2)nn1C(=O)NCC1CC1 [Compound I-1-316]	100	100	1.65	

Compound	efficacy (kill in %) [1, 3] [%]	efficacy (kill in %) [1, 4] [%]	log P (acid) ([2]; LC-MS in the acidic range)	also measured
C=CCn1nnc(NC(=O)c2cccnc2)n1 [Compound I-4-8]	100	100		log P (acid) [2, 5]: 0.60
Cc1cc(NC(=O)c2cccnc2)nn1C(=O)NC(C)c1ccccc1 (centres unmarked) [Compound I-1-331]	100	100	2.22	
Cc1cc(NC(=O)c2ccc(Cl)nc2)nn1Cc1ccccc1F [Compound I-1-93]		100	2.59	
CC(C)n1ncc(NC(=O)c2cccnc2)n1 [Compound I-3-10]		100		log P (acid) [2, 7]: 1.09
CSCCCNC(=O)n1nc(NC(=O)c2cccnc2)cc1C [Compound I-1-165]	100	100	1.7	
Cc1c(C#N)c(NC(=O)c2cccnc2)nn1Cc1ncccn1 [Compound I-1-194]		100	0.63	
CCN(CC)C(=O)n1nc(NC(=O)c2cccnc2)cc1C [Compound I-1-290]	100	100	2.31	
Cc1cc(NC(=O)c2cccnc2)nn1CN1CCS/C1=N/C#N [Compound I-1-142]	100	100	1.08	
CSc1nc(NC(=O)c2cccnc2)nn1C [Compound I-2-26]		100		log P (acid) [2, 6]: 0.32
Cc1cc(NC(=O)c2cccnc2)nn1C=C(F)c1ccc(Cl)cn1 [Compound I-1-306]		100	2.31	
Cc1nn(-c2ccccn2)nc1NC(=O)c1cccnc1 [Compound I-3-1, N-[5-Methyl-2-(pyridin-2-yl)-2H-1,2,3-triazol-4-yl]nicotinamide]				pest or weed control at 6 ppm ([1]; Myzus persicae, application rate of 6 ppm in nutrient medium, read-out: efficacy (kill in %)): 100%; pest or weed control at 30 ppm ([1]; Myzus persicae, application rate of 30 ppm in nutrient medium, read-out: efficacy (kill in %)): 100%; chromatographic logP ([2]; pH 2.7, Table 3, HPLC on reversed-phase column (C 18), 55° C., acidic range (pH 2.7 or pH 2.3), read-out: log P (acid)): 1.08; chromatographic logP ([2]; pH 2.7, values given in the synthesis examples and NMR lists, read-out: HPLC-MS: log P): 1.08
Cc1cc(NC(=O)c2cccnc2)nn1Cc1ccc2nsnc2c1 [Compound I-1-339]		100	1.61	
Cc1cc(NC(=Nc2ccc(Cl)cc2Cl)c2cccnc2)nn1C [Compound I-1-232]		100	1.77	
Cc1cc(NC(=O)c2cccnc2)nn1S(=O)(=O)N1CCC(C)CC1 [Compound I-1-162]	100	100	2.51	
O=C(Nc1cnn(-c2ncccc2Br)n1)c1cccnc1 [Compound I-3-7]	80	100		log P (acid) [2, 7]: 1.33
CSc1c(C#N)c(NC(=O)c2cccnc2)nn1C [Compound I-1-270]		80	0.96	
COC(=O)c1cc(NC(=O)c2cccnc2)nn1C [Compound I-1-138]		100	1.05	
Cc1cc(NC(=O)c2cccnc2)nn1C(=O)NC(C)C(F)(F)F (centres unmarked) [Compound I-1-307]	100	100	1.89	
O=C(Nc1ccn(Cc2cccc(C(F)(F)F)c2)n1)c1cccnc1 [Compound I-1-71]		100	2.07	
Cc1ccc(C)c(Cn2ccc(NC(=O)c3cccnc3)n2)c1 [Compound I-1-81]		100	2.11	
O=C(Nc1ccn(Cc2cc(F)ccc2F)n1)c1cccnc1 [Compound I-1-90]	100	100	1.65	
